One experiment deals with T1, Urease (Canavalia ensiformis, UniProt P07374). Kind of experiment: Inhibition of jack bean urease assessed as reduction on ammonia production using urea as substrate incubated for 30 mins by indophenol method.
T1 sequence (P07374 whole entry): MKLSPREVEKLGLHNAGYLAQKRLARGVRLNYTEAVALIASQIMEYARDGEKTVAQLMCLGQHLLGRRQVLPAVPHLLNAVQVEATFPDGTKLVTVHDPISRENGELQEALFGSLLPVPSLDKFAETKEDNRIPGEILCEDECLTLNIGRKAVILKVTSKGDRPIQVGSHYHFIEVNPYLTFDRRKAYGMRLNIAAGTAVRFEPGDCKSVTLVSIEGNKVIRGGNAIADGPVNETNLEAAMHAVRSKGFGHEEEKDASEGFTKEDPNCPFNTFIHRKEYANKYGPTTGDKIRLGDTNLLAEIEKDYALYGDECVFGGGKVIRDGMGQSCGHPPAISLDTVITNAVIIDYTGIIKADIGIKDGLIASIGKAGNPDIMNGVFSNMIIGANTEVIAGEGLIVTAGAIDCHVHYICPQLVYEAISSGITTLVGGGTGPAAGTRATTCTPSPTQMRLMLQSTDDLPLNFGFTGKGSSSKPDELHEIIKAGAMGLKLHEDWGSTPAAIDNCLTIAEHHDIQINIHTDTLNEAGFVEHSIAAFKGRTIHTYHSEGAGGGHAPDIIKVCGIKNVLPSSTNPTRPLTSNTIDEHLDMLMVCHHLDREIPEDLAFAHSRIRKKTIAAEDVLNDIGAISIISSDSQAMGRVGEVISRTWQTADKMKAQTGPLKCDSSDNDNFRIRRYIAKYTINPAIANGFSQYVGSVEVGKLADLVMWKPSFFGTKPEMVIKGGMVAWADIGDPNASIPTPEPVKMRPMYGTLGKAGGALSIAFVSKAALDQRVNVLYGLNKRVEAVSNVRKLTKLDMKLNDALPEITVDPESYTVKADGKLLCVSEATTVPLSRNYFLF
Conditions: not given
Consider `NC(N)=S` [THIOUREA], for which the IC50 (in general, the concentration that inhibits the measured activity by half) is 18.2 µM. Same read-out and setting: next, `CCCCCCCCCCCCCC(=O)NC(=S)Nc1cccc(Cl)c1`: 0.0391 µM.

Tested on in a further experiment: not listed separately
Nature of the experiment: Inhibition of urease (unknown origin) assessed as reduction on ammonia production using urea as substrate incubated for 15 mins by indophenol reagent based microplate reader assay.
Conditions: not given
On to `O=C(NNC(=S)Nc1ccc([N+](=O)[O-])cc1)c1ccc(-c2nc3ccccc3s2)cc1`, for which the half-maximal inhibitory concentration (IC50) came to 1.4 µM.

A further experiment deals with T1, Urease. Kind of experiment: Inhibition of jack bean urease assessed as reduction on ammonia production using urea as substrate preincubated for 15 mins followed by substrate addition and measured after 15 mins by indophenol method.
Conditions: not given
With `CC(C)NCC(O)COc1ccc(CC(N)=O)cc1` (configuration not stated) [ATENOLOL], the IC50 came to 64.4 µM.

Another experiment has as its target T1, Urease. Nature of the experiment: Inhibition of jack bean urease assessed as reduction on ammonia production using urea as substrate incubated for 30 mins by indophenol reagent based UV-vis spectrophotometer.
Conditions: not given
`Cc1nc2cc(Cl)c(Cl)cc2n1Cc1nnc(S)n1-c1ccc([N+](=O)[O-])cc1`: the IC50 amounted to 0.0294 µM.

On to `Cc1nc2cc(Cl)c(Cl)cc2n1CC(=O)NNC(=S)Nc1ccc([N+](=O)[O-])cc1`, for which the concentration for half-maximal inhibition (IC50) was 0.0354 µM. The same measure, in the same setting: next, `S=P(Nc1ccc(CCc2ccc(NP(=S)(c3ccccc3)c3ccccc3)cc2)cc1)(c1ccccc1)c1ccccc1`: 0.00191 µM.

Tested on in another experiment: not listed separately
Nature of the experiment: Inhibition of urease (unknown origin).
Conditions: not given
For the molecule `O=c1c2ccccc2nc(Cc2ccccc2)n1Cc1nnc(Nc2ccc([N+](=O)[O-])cc2)s1`, the IC50 stood at 3.3 µg/mL.

As for `CCc1nc2ccccc2c(=O)n1CC(=O)NNC(=O)c1cc2cc(Br)ccc2oc1=O`, the 50% inhibitory concentration (IC50) is 1.26 µg/mL.

Staying with this experiment, now noted: read-out: IC50.
For `O=C(N/N=C/c1c(O)ccc2c(=O)cc(-c3ccc(F)cc3)oc12)c1ccccc1`, the IC50 stood at 1.21 µM. Still for that read-out and setting: next, `O=[N+]([O-])c1ccc(S(=O)(=O)N/N=C(\c2ccccc2)c2ccc(O)cc2)cc1`: 3.9 µM; `COc1ccc(-c2nc(C(=O)NC3CCCCC3)cs2)cc1`: 1.82 µM. With `O=C1Nc2ccc(Cl)cc2/C1=C\c1ccc(C(=O)N/N=C/c2c(O)cc(O)cc2O)cc1`, the IC50 turned out to be 13 µM. Still for that read-out and setting: next, `O=C(CC(O)c1cc(Cl)ccc1OCc1ccccc1)NO` (configuration not stated): 0.15 µM; `CC(C)=CCN1C(=O)/C(=N/Nc2ccccc2)c2ccccc21`: 0.71 µM. Same read-out and setting: next, `O=C1NC(=S)NC(=O)C1=CNc1cc([N+](=O)[O-])ccc1C(=O)O`: 8.53 µM. Same read-out and setting: next, `COc1ccc(/C=C/C(=O)c2ccc(O)cc2)cc1`: 11.5 µM; `O=[N+]([O-])c1ccc(S(=O)(=O)Nc2nnc(-c3ccc(C(c4c[nH]c5ccc(Br)cc45)c4c[nH]c5ccc(Br)cc45)cc3)s2)c([N+](=O)[O-])c1`: 0.5 µM. Take `Nc1cccc(C(c2c(O)c3ccccc3oc2=O)c2c(O)c3ccccc3oc2=O)c1`: the IC50 worked out at 74.3 µM. The same measure, in the same setting: next, `Cc1ccc(/C=N/Nc2nc(-c3ccc(Br)cc3)cs2)cc1`: 0.11 µM; `COc1ccc(C(=O)NNC(=O)c2cc(Cl)cc(Cl)c2)cc1`: 0.87 µM; `CC(=O)NO` [ACETOHYDROXAMIC ACID]: 29.2 µM.

In the next experiment the target is T1, Urease. Kind of experiment: Inhibition of jack bean urease.
Conditions: not given
With `NNC(=O)c1ccc(C(=O)Cn2nc(-c3ccccc3O)nc2-c2ccccc2O)cc1`, the IC50 was determined as 3.25 µM.

Consider `CCOc1ccc(NC(=S)N(CC(O)COc2ccc(CC(N)=O)cc2)C(C)C)cc1` (configuration not stated), for which the IC50 is 11.7 µM. Take `CCNC1NN=C(Cn2c(Cc3ccc(F)cc3)nc3ccccc3c2=O)S1` (configuration not stated): it took 4.73 µM to reach half-maximal inhibition (IC50). For the molecule `Nn1c(-c2ccc(Br)cc2)n[nH]c1=S`, the IC50 was 4.3 µM. Still for that read-out and setting: next, `Cc1ncc([N+](=O)[O-])n1Cc1cn(Cc2ccc(F)cc2)nn1`: 1.97 µM.

Take `O=C(Cc1nnn[nH]1)Cn1nc(-c2ccccc2O)nc1-c1ccccc1O`: the IC50 was found to be 1.27 µM. On the same count and under the same terms, next, `COc1cc(C(=O)c2c(O)c3ccccc3oc2=O)cc(OC)c1OC`: 11.3 µM. For the molecule `CCc1nc2cc([N+](=O)[O-])ccc2n1S(=O)(=O)c1ccc(C)cc1`, the midpoint of inhibition, the IC50, lay at 31.1 µM. The same measure, in the same setting: next, `C/C(=N\NC(=S)Nc1cccc([N+](=O)[O-])c1)c1cc2ccccc2o1`: 0.077 µM; `O=C1O[C@H]([C@@H](O)CO)C(O)=C1O` [ASCORBIC ACID]: 8.59 µM; `CCNc1cc2c(cc1C)C1(c3cc(C)c(NCC)cc3O2)c2ccccc2C(=O)N1NC(=O)c1ccccc1`: 0.111 µM.

The molecule `O=C(/C=C/c1ccc(O)c(O)c1)O[C@@H]1C[C@](O)(C(=O)Nc2ccc(-c3ccc(Cl)cc3[N+](=O)[O-])cc2)CC(O)C1O` (some centres not stated) yielded a concentration for half-maximal inhibition (IC50) of 11 µM.

The target of a further experiment is T1, Urease. Nature of the experiment: Non-competitive inhibition of jack bean urease assessed as dissociation constant measured upto 10 mins by Lineweaver-Burk plot analysis.
Conditions: not given
As for `CCCCCCCCCCCCCC(=O)NC(=S)Nc1cccc(Cl)c1`, the Ki – broadly, a measure of affinity in units of concentration, obtained from inhibition or displacement – came out at 0.021 µM.

The target of the next experiment is Urease subunit alpha/Urease subunit beta (Helicobacter pylori (strain ATCC 700392 / 26695) (Campylobacterpylori), UniProt P69996). Kind of experiment: Inhibition of Helicobacter pylori urease. It is filed as protein-complex assay.
Urease subunit alpha/Urease subunit beta, sequence (P69996 whole entry): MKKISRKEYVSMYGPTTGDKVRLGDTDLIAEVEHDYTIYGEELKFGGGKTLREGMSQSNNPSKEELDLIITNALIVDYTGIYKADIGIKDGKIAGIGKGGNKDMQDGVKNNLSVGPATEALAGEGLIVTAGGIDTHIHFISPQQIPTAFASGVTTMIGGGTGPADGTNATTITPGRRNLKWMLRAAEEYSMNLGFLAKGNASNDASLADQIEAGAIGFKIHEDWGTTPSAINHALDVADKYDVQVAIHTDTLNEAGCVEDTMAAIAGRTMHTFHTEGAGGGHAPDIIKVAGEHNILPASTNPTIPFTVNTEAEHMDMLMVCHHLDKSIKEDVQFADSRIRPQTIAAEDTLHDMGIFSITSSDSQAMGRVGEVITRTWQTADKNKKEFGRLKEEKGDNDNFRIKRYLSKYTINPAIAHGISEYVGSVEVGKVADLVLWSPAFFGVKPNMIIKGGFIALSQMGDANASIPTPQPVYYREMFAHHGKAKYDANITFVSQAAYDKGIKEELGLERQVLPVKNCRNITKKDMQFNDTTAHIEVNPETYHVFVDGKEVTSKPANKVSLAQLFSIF
Urease subunit alpha/Urease subunit beta, sequence (P14916 whole entry, further chain): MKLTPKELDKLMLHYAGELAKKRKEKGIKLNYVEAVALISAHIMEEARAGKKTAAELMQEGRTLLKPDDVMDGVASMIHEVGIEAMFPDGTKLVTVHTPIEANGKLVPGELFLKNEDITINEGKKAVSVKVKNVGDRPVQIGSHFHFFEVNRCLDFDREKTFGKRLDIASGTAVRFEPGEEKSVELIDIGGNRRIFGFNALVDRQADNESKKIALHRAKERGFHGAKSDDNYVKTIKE
Conditions: not given
`O=C(COc1ccc(CC2C(=O)NC(=O)NC2=O)cc1)Nc1cccc(Cl)c1Cl` had a 50% inhibitory concentration (IC50) of 0.69 µM. `NC(=O)NO` [HYDROXYUREA]: the half-inhibitory concentration (IC50) was 100 µM.

With `NC(N)=S` [THIOUREA], the half-maximal inhibitory concentration (IC50) came to 23 µM.

Tested on in another experiment: not listed separately
Nature of the experiment: Antioxidant activity assessed as DPPH radical scavenging activity incubated for 30 mins. In kind it is functional.
Conditions: not given
Take `COc1ccc(-c2c/c(=N\C(=S)Nc3cccc([N+](=O)[O-])c3)c3c(O)cc(O[C@@H]4O[C@H](CO)[C@@H](O)[C@H](O)[C@H]4O[C@@H]4O[C@@H](C)[C@H](O)[C@@H](O)[C@H]4O)cc3o2)cc1O`: the IC50 is 5.2 µM. Same read-out and setting: next, `O=C(/C=C/c1ccc(O)c(O)c1)O[C@@H]1C[C@](O)(C(=O)Nc2ccc(-c3ccc(Cl)cc3[N+](=O)[O-])cc2)CC(O)C1O` (some centres not stated): 5.1 µM. The same measure, in the same setting: next, `COc1ccc(-c2c/c(=N\C(=O)Oc3ccccc3)c3c(O)cc(O[C@@H]4O[C@H](CO)[C@@H](O)[C@H](O)[C@H]4O[C@@H]4O[C@@H](C)[C@H](O)[C@@H](O)[C@H]4O)cc3o2)cc1O`: 5.64 µM.

In another experiment the target is T1, Urease. Kind of experiment: Inhibition of jack bean urease assessed as reduction on ammonia production using urea as substrate incubated for 15 mins by indophenol reagent based microplate reader assay.
Conditions: not given
On to `NS(=O)(=O)c1ccc(NC=C2C(=O)NC(=S)NC2=O)cc1`, for which the 50% inhibitory concentration (IC50) turned out to be 3.76 µM. On to `C[C@H](O)c1nc2ccccc2[nH]1`, for which the IC50 is 22 µM. Same read-out and setting: next, `COc1ccc(-c2c/c(=N\C(=S)Nc3cccc([N+](=O)[O-])c3)c3c(O)cc(O[C@@H]4O[C@H](CO)[C@@H](O)[C@H](O)[C@H]4O[C@@H]4O[C@@H](C)[C@H](O)[C@@H](O)[C@H]4O)cc3o2)cc1O`: 12.6 µM; `COc1ccc2cc([C@@H](C)c3nc4cc(Cl)ccc4[nH]3)ccc2c1`: 36 µM. Still for that read-out and setting: next, `Oc1ccc(C2Oc3cc(O)cc(O)c3/C(=N/C(=S)Nc3ccccc3)C2O)c(O)c1` (configuration not stated): 7.37 µM.

Regarding `COc1ccc(-c2c/c(=N\C(=O)Oc3ccccc3)c3c(O)cc(O[C@@H]4O[C@H](CO)[C@@H](O)[C@H](O)[C@H]4O[C@@H]4O[C@@H](C)[C@H](O)[C@@H](O)[C@H]4O)cc3o2)cc1O`, the concentration for half-maximal inhibition (IC50) is 15.6 µM.

Source of the values: ChEMBL document CHEMBL5137004, “An overview on the synthetic urease inhibitors with structure-activity relationship and molecular docking” (Eur J Med Chem, 2022).
